# Laboratory results: ChEMBL document CHEMBL4699602, “Stapled and Xenopus Glucagon-Like Peptide 1 (GLP-1)-Based Dual GLP-1/Gastrin Receptor Agonists with Improved Metabolic Benefits in Rodent Models of Obesity and Diabetes” (J Med Chem, 2020)
# Where a SMILES comes first, the peptide text is derived from it.
# Legend:
# [1] = target: T1, Glucagon-like peptide 1 receptor (Homo sapiens, UniProt P43220); assay: Agonist activity at human GLP-1R expressed in HEK293 cells assessed as stimulation of cAMP accumulation incubated for 20 mins in presence of 4.4% HSA; format: functional, cell-based
# [2] = target: T1, Glucagon-like peptide 1 receptor; assay: Ratio of EC50 for agonist activity at human GLP-1R expressed in HEK293 cells in presence of 4.4% HSA to EC50 for agonist activity at human GLP-1R expressed in HEK293 cells in presence of 0% HSA; format: cell-based
# [3] = target: T1, Glucagon-like peptide 1 receptor; assay: Agonist activity at human GLP-1R expressed in HEK293 cells assessed as stimulation of cAMP accumulation incubated for 20 mins in presence of 0% HSA; format: functional, cell-based
# T1 sequence (P43220 whole entry): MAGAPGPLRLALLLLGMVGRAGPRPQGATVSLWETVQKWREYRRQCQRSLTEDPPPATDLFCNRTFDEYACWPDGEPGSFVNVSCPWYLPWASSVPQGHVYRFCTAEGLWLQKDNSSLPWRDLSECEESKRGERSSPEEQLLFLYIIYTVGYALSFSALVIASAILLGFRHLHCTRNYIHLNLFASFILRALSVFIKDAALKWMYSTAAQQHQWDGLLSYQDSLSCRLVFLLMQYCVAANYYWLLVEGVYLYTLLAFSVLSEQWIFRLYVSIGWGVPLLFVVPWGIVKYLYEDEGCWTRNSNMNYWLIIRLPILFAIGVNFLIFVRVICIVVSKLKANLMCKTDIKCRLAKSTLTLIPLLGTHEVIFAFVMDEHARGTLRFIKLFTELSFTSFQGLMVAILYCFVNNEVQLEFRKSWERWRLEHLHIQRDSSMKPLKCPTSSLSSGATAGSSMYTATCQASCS
Structure (SMILES),EC50 [1] [nM],Ratio EC50 [2],EC50 [3] [nM]
"CC[C@H](C)[C@H](NC(=O)[C@H](CC(C)C)NC(=O)[C@H](Cc1c[nH]c2ccccc12)NC(=O)[C@H](CCC(=O)O)NC(=O)[C@@H](NC(=O)[C@H](Cc1ccccc1)NC(=O)[C@@H]1CSC2CC(=O)N(CCC(=O)NC(C(=O)NCCCCCCNC(=O)COCCOCCNC(=O)COCCOCCNC(=O)CCC(NC(=O)CCCCCCCCCCCCCCCCC(=O)O)C(=O)O)CCCCNC(=O)CCN3C(=O)CC(SC[C@H](NC(=O)[C@H](Cc4ccc(O)cc4)NC(=O)[C@H](CCC(=O)O)NC(=O)[C@@H](NC(=O)[C@@H](NC(=O)[C@H](CC(=O)O)NC(=O)[C@H](CC(N)=O)NC(=O)[C@@H](NC(=O)[C@H](Cc4ccc(O)cc4)NC(=O)[C@@H](NC(=O)CNC(=O)[C@H](CCC(=O)O)NC(=O)C(C)(C)NC(=O)[C@@H](N)Cc4c[nH]cn4)[C@@H](C)O)[C@@H](C)O)C(C)C)[C@@H](C)O)C(=O)N[C@@H](CCC(=O)O)C(=O)N[C@@H](CCC(=O)O)C(=O)N[C@@H](CCC(=O)O)C(=O)N[C@@H](C)C(=O)N[C@@H](C)C(=O)N[C@@H](CCCCN)C(=O)N1)C3=O)C2=O)[C@@H](C)CC)C(=O)N[C@@H](CCCCN)C(=O)NCC(=O)N[C@@H](CCCCN)C(N)=O (stereo not given in full) (HELM PEPTIDE1{H.[Aib].E.G.T.Y.T.N.D.V.T.E.Y.C.E.E.E.A.A.K.C.F.I.E.W.L.I.K.G.K.[am]}|CHEM1{[O=C(O)CCCCCCCCCCCCCCCCC(=O)NC(CCC(=O)NCCOCCOCC(=O)NCCOCCOCC(=O)NCCCCCCNC(=O)C(CCCCNC(=O)CCN1C(=O)CC([*:1])C1=O)NC(=O)CCN1C(=O)CC([*:2])C1=O)C(=O)O]}$PEPTIDE1,CHEM1,14:R3-1:R1|PEPTIDE1,CHEM1,21:R3-1:R2$$$V2.0)",14.5,90.6,0.16
"CC[C@H](C)[C@H](NC(=O)[C@H](CC(C)C)NC(=O)[C@H](Cc1c[nH]c2ccccc12)NC(=O)[C@H](CCC(=O)O)NC(=O)[C@@H](NC(=O)[C@H](Cc1ccccc1)NC(=O)[C@@H]1CSC2CC(=O)N(CCC(=O)NC(C(=O)NCCCCCCNC(=O)COCCOCCNC(=O)CCCCCCCCCCCCCCCCC(=O)O)CCCCNC(=O)CCN3C(=O)CC(SC[C@H](NC(=O)[C@H](Cc4ccc(O)cc4)NC(=O)[C@H](CCC(=O)O)NC(=O)[C@@H](NC(=O)[C@@H](NC(=O)[C@H](CC(=O)O)NC(=O)[C@H](CC(N)=O)NC(=O)[C@@H](NC(=O)[C@H](Cc4ccc(O)cc4)NC(=O)[C@@H](NC(=O)CNC(=O)[C@H](CCC(=O)O)NC(=O)C(C)(C)NC(=O)[C@@H](N)Cc4c[nH]cn4)[C@@H](C)O)[C@@H](C)O)C(C)C)[C@@H](C)O)C(=O)N[C@@H](CCC(=O)O)C(=O)N[C@@H](CCC(=O)O)C(=O)N[C@@H](CCC(=O)O)C(=O)N[C@@H](C)C(=O)N[C@@H](C)C(=O)N[C@@H](CCCCN)C(=O)N1)C3=O)C2=O)[C@@H](C)CC)C(=O)N[C@@H](CCCCN)C(=O)NCC(=O)N[C@@H](CCCCN)C(N)=O (stereo not given in full) (HELM PEPTIDE1{H.[Aib].E.G.T.Y.T.N.D.V.T.E.Y.C.E.E.E.A.A.K.C.F.I.E.W.L.I.K.G.K.[am]}|CHEM1{[O=C(O)CCCCCCCCCCCCCCCCC(=O)NCCOCCOCC(=O)NCCCCCCNC(=O)C(CCCCNC(=O)CCN1C(=O)CC([*:1])C1=O)NC(=O)CCN1C(=O)CC([*:2])C1=O]}$PEPTIDE1,CHEM1,14:R3-1:R1|PEPTIDE1,CHEM1,21:R3-1:R2$$$V2.0)",1.4,10.8,0.13
"CC[C@H](C)[C@@H]1NC(=O)[C@H](CC(C)C)NC(=O)[C@H](Cc2c[nH]c3ccccc23)NC(=O)[C@H](CCC(=O)O)NC(=O)[C@H]([C@@H](C)CC)NC(=O)[C@H](Cc2ccccc2)NC(=O)[C@@H](NC(=O)[C@H](CCCCN)NC(=O)[C@H](C)NC(=O)[C@H](C)NC(=O)[C@H](CCC(=O)O)NC(=O)[C@H](CCC(=O)O)NC(=O)[C@H](CCC(=O)O)NC(=O)[C@H](CC(C)C)NC(=O)[C@H](Cc2ccc(O)cc2)NC(=O)[C@H](CCC(=O)O)NC(=O)[C@@H](NC(=O)[C@@H](NC(=O)[C@H](CC(=O)O)NC(=O)[C@H](CC(N)=O)NC(=O)[C@@H](NC(=O)[C@H](Cc2ccc(O)cc2)NC(=O)[C@@H](NC(=O)CNC(=O)[C@H](CCC(=O)O)NC(=O)C(C)(C)NC(=O)[C@@H](N)Cc2c[nH]cn2)[C@@H](C)O)[C@@H](C)O)C(C)C)[C@@H](C)O)CSC2CC(=O)N(CCC(=O)NCCCCC(C(=O)NCCCCCCNC(=O)COCCOCCNC(=O)CCC(NC(=O)CCCCCCCCCCCCCCCCC(=O)O)C(=O)O)NC(=O)CCN3C(=O)CC(SC[C@@H](C(=O)NCC(=O)N[C@@H](CCCCN)C(=O)N4CCC[C@H]4C(=O)N[C@@H](CO)C(=O)N[C@@H](CO)C(=O)NCC(=O)N[C@@H](C)C(=O)N4CCC[C@H]4C(=O)N4CCC[C@H]4C(=O)N4CCC[C@H]4C(=O)N[C@@H](CO)C(N)=O)NC1=O)C3=O)C2=O (stereo not given in full) (HELM PEPTIDE1{H.[Aib].E.G.T.Y.T.N.D.V.T.E.Y.L.E.E.E.A.A.K.C.F.I.E.W.L.I.C.G.K.P.S.S.G.A.P.P.P.S.[am]}|CHEM1{[O=C(O)CCCCCCCCCCCCCCCCC(=O)NC(CCC(=O)NCCOCCOCC(=O)NCCCCCCNC(=O)C(CCCCNC(=O)CCN1C(=O)CC([*:1])C1=O)NC(=O)CCN1C(=O)CC([*:2])C1=O)C(=O)O]}$PEPTIDE1,CHEM1,21:R3-1:R1|PEPTIDE1,CHEM1,28:R3-1:R2$$$V2.0)",8.6,61.4,0.14
"CC[C@H](C)[C@@H]1NC(=O)[C@H](CC(C)C)NC(=O)[C@H](Cc2c[nH]c3ccccc23)NC(=O)[C@H](CCC(=O)O)NC(=O)[C@H]([C@@H](C)CC)NC(=O)[C@H](Cc2ccccc2)NC(=O)[C@@H](NC(=O)[C@H](CCCCN)NC(=O)[C@H](C)NC(=O)[C@H](C)NC(=O)[C@H](CCC(=O)O)NC(=O)[C@H](CCC(=O)O)NC(=O)[C@H](CCC(=O)O)NC(=O)[C@H](CC(C)C)NC(=O)[C@H](Cc2ccc(O)cc2)NC(=O)[C@H](CCC(=O)O)NC(=O)[C@@H](NC(=O)[C@@H](NC(=O)[C@H](CC(=O)O)NC(=O)[C@H](CC(N)=O)NC(=O)[C@@H](NC(=O)[C@H](Cc2ccc(O)cc2)NC(=O)[C@@H](NC(=O)CNC(=O)[C@H](CCC(=O)O)NC(=O)C(C)(C)NC(=O)[C@@H](N)Cc2c[nH]cn2)[C@@H](C)O)[C@@H](C)O)C(C)C)[C@@H](C)O)CSC2CC(=O)N(CCC(=O)NCCCCC(C(=O)NCCCCCCNC(=O)COCCOCCNC(=O)COCCOCCNC(=O)CCC(NC(=O)CCCCCCCCCCCCCCCCC(=O)O)C(=O)O)NC(=O)CCN3C(=O)CC(SC[C@@H](C(=O)NCC(=O)N[C@@H](CCCCN)C(=O)N4CCC[C@H]4C(=O)N[C@@H](CO)C(=O)N[C@@H](CO)C(=O)NCC(=O)N[C@@H](C)C(=O)N4CCC[C@H]4C(=O)N4CCC[C@H]4C(=O)N4CCC[C@H]4C(=O)N[C@@H](CO)C(N)=O)NC1=O)C3=O)C2=O (stereo not given in full) (HELM PEPTIDE1{H.[Aib].E.G.T.Y.T.N.D.V.T.E.Y.L.E.E.E.A.A.K.C.F.I.E.W.L.I.C.G.K.P.S.S.G.A.P.P.P.S.[am]}|CHEM1{[O=C(O)CCCCCCCCCCCCCCCCC(=O)NC(CCC(=O)NCCOCCOCC(=O)NCCOCCOCC(=O)NCCCCCCNC(=O)C(CCCCNC(=O)CCN1C(=O)CC([*:1])C1=O)NC(=O)CCN1C(=O)CC([*:2])C1=O)C(=O)O]}$PEPTIDE1,CHEM1,21:R3-1:R1|PEPTIDE1,CHEM1,28:R3-1:R2$$$V2.0)",16.5,97.1,0.17
"CC[C@H](C)[C@@H]1NC(=O)[C@H](CC(C)C)NC(=O)[C@H](Cc2c[nH]c3ccccc23)NC(=O)[C@H](CCC(=O)O)NC(=O)[C@H]([C@@H](C)CC)NC(=O)[C@H](Cc2ccccc2)NC(=O)[C@@H](NC(=O)[C@H](CCCCN)NC(=O)[C@H](C)NC(=O)[C@H](C)NC(=O)[C@H](CCC(=O)O)NC(=O)[C@H](CCC(=O)O)NC(=O)[C@H](CCC(=O)O)NC(=O)[C@H](CC(C)C)NC(=O)[C@H](Cc2ccc(O)cc2)NC(=O)[C@H](CCC(=O)O)NC(=O)[C@@H](NC(=O)[C@@H](NC(=O)[C@H](CC(=O)O)NC(=O)[C@H](CC(N)=O)NC(=O)[C@@H](NC(=O)[C@H](Cc2ccc(O)cc2)NC(=O)[C@@H](NC(=O)CNC(=O)[C@H](CCC(=O)O)NC(=O)C(C)(C)NC(=O)[C@@H](N)Cc2c[nH]cn2)[C@@H](C)O)[C@@H](C)O)C(C)C)[C@@H](C)O)CSC2CC(=O)N(CCC(=O)NCCCCC(C(=O)NCCCCCCNC(=O)COCCOCCNC(=O)CCCCCCCCCCCCCCCCC(=O)O)NC(=O)CCN3C(=O)CC(SC[C@@H](C(=O)NCC(=O)N[C@@H](CCCCN)C(=O)N4CCC[C@H]4C(=O)N[C@@H](CO)C(=O)N[C@@H](CO)C(=O)NCC(=O)N[C@@H](C)C(=O)N4CCC[C@H]4C(=O)N4CCC[C@H]4C(=O)N4CCC[C@H]4C(=O)N[C@@H](CO)C(N)=O)NC1=O)C3=O)C2=O (stereo not given in full) (HELM PEPTIDE1{H.[Aib].E.G.T.Y.T.N.D.V.T.E.Y.L.E.E.E.A.A.K.C.F.I.E.W.L.I.C.G.K.P.S.S.G.A.P.P.P.S.[am]}|CHEM1{[O=C(O)CCCCCCCCCCCCCCCCC(=O)NCCOCCOCC(=O)NCCCCCCNC(=O)C(CCCCNC(=O)CCN1C(=O)CC([*:1])C1=O)NC(=O)CCN1C(=O)CC([*:2])C1=O]}$PEPTIDE1,CHEM1,21:R3-1:R1|PEPTIDE1,CHEM1,28:R3-1:R2$$$V2.0)",2.3,15.3,0.15
